The subject of assay [1] is PLA2g6(L)-dependent Orai1-mediated SOCE. Put plainly: TG-induced store-operated Ca2+ entry (SOCE), Fura-2 imaging in human primary skin fibroblasts. To be noted: Skin fibroblast, 10 μM of DES, hPSF, read-out: inhibition of TG-induced Ca^2+ influx. Format: cell-based.
Protocol: Intracellular Ca^2+ studies were performed using standard Fura-2 imaging technique. Briefly, the cells were loaded with Fura-2/AM (5 μM) (Invitrogen) and cytosolic Ca^2+ (using F340/F380 ratio) was recorded simultaneously in individual cells. Representative traces in the figures show average (±SD) responses from up to 20 cells recorded simultaneously. Ca^2+ changes are shown by ΔRatio (ΔF340/F380), which is the difference between the basal and peak values of Ca^2+ responses. Summary bar graphs show the average (±SE) from 3 independent experiments for each condition; the total number of cells in each experimental group is identified on the graphs.
SOCE was measured in response to extracellular application of 2-2.5 mM Ca^2+ in the presence of TG. Concentration and time of acute TG treatment was titrated for each cell type to ensure >90% loss of Ca^2+ from TG-sensitive stores at the time of Ca^2+ addition. […] To inhibit PLA2g6 activity, (S)-BEL (S-bromoenol lactone, Cayman, USA) was applied (10-50 μM for 20 min in serum-free medium at 37° C.) to the cells after their loading with Fura-2/AM, and was washed away before the start of experiment.
The subject of assay [2] is PLA2g6 ex2^KO mice. The assay can be described thus: L-DOPA challenge test, balance beam test. The class given is in vivo, mouse. The procedure:
The balance beam test (ref 72, 73) was used to assess the ability of ageing ex2^KO and WT mice to maintain balance while walking along a narrow (2 cm) beam placed 20 cm above a soft mattress. Each mouse was placed on a beam for 2 minutes, and its movement was recorded by video camera. The total travel distance, the number of missteps (paw faults, or slips) during travel, and the number of falls off the beam were analyzed for each mouse, and data summarized for each group as mean±SE. The numbers of animals used for each group are identified on the graphs. L-DOPA challenge test (ref 3) was performed on three age groups (12, 16 and 20 months old) ex2^KO male mice with motor deficits. Control balance beam test was performed in the morning a day before L-3,4-dihydroxyphenylalanine (L-DOPA) challenge. In the morning of the following day, all mice received a single dose of L-DOPA (5, 10 or 25 mg/kg, Sigma) via peritoneal injection. Twenty minutes before L-DOPA administration, mice were given 6 mg/kg of benserazide (Sigma) to inhibit peripheral DOPA decarboxylase. The balance beam test was done 1 h after L-DOPA injection, as described above. Video-recorded data for each mouse were analyzed later, and summarized for each group as mean±SE. The numbers of animals used for each age group are identified next to the graph.

Assay [3] concerns PLA2g6. The assay can be described thus: PLA2g6 activity, modified PLA2 assay kit, fibroblast homogenates. Format: biochemical, human. The conditions noted are these: S-BEL 25 μM for 10 min; hPSF from control, idPD and fPD^R747W patients. As for the experimental part:
A modified PLA2 assay kit (Cayman for MEFs, and AbCam for hPSF) was used as previously described^21,26. Briefly, each sample of live hPSF or MEF cells was homogenized using a cold lysis buffer (10 mM Tris-HCl, pH 7.0, 300 mM sucrose, 0.5% Triton X-100). To identify specific activity of Ca^2+-independent PLA2g6, the assay buffers were modified to contain no Ca^2+. To assess catalytic activity of PLA2g6, the cells were homogenized and treated with 10 mM EGTA for 10 min, which is known to directly displace inhibitory calmodulin, and fully activate PLA2g6. For analysis of PLA2g6 activation by store depletion, live cells were pretreated with TG (5 μM for 10 min) before homogenization, and homogenates were not treated with 10 mM EGTA. The specificity of PLA2g6 activity in both cases was confirmed by its inhibition with S-BEL (25 μM for 10 min), a chiral-specific suicidal substrate^38 that discriminates PLA2g6 from all other phospholipases. […] The reaction was stopped and the generation of free thiols was visualized by addition of DTNB for 5 min: the absorbance was determined at 405 nm using a standard microplate reader. […]

Assay [4] concerns MEF cells. Put plainly: LC3^mCherry/eGFP autophagic flow, live cell imaging in MEFs. The class given is cell-based, mouse. The conditions noted are these: WT MEFs; prolonged TG treatment, 10 nM for 24 hours. The procedure:
Transfection of MEFs was performed using the Amaxa Nucleofector™ system (Lonza, Allendale, N.J., USA). Briefly, the cells were plated in a 6-well plate at a density of 200,000/well. After 24h the cells from each well were collected, centrifuged, re-suspended in 100 μl of electroporation solution (Mirus Bio, Madison, Wis., USA), mixed with 2 μg of the recombinant plasmid DNA and transfected using the T020 program. After electroporation, the cells were plated in 2 ml of warm DMEM containing 10% FBS and 1% penicillin/streptomycin, and grown for 24-48 hours, as specified. Transfection efficiency (verified by expression of GFP or LC3^mCherry/eGFP) was >70%.
Live cell imaging was done using Nikon Ti inverted fluorescence microscope equipped with a Perfect Focus system and environmental chamber (InVivo Scientific). Live cells transfected with LC3^mCherry/eGFP (alone, or in combination with PLA2g6, or its mutants) were imaged in glass-bottom dishes in culture medium at 37° C. and 5% CO2. Images of individual cells were taken using a 60×/1.4 Plan-Apochromat oil immersion objective (Nikon) and filter sets for GFP (ex: 465-496, em: 515-555) and Texas Red (ex: 540-580, em: 600-660). Images of representative cells were analyzed using ImageJ (Wayne Rasband, NIH) software. […]

Results on four compounds are retold here after patent US11360102B2, “Biomarkers for the early detection of Parkinson's disease” (BOSTON MEDICAL CENTER CORPORATION, priority 2015, dated 2022).

SMILES strings stand for the structures. Read-outs that look alike come from different tables or passages of the source.

In the case of `CC/C(=C(/CC)c1ccc(O)cc1)c1ccc(O)cc1` [DES, diethylstilbestrol], the inhibition (usually the percentage by which the read-out fell short of the control) at 10 µM came to 80 ± 1% in assay [1] (control group) and 82 ± 4% in assay [1] (idPD group).
As for `N[C@@H](Cc1ccc(O)c(O)c1)C(=O)O` [L-DOPA, L-3,4-dihydroxyphenylalanine], the “reduction in the number of missteps (balance beam performance)” value in assay [2] (5 mg/kg body weight L-DOPA, peritoneal injection, test 1 h after, 12-month old ex2^KO animals) came to 60%. In assay [2] (5, 10 or 25 mg/kg, 12, 16 and 20 months old ex2^KO mice), the “motor coordination of ex2^KO animals after L-DOPA” value is recorded as “dramatically improved motor coordination”.
As to `O=C1O/C(=C/Br)CC[C@H]1c1cccc2ccccc12` [S-BEL, S-bromoenol lactone], the “effect on PLA2g6 activity (catalytic and TG-induced)” value in assay [3] is reported as “inhibition”.
Turning to `C/C=C(/C)C(=O)O[C@H]1C(C)=C2[C@H]([C@@H]1OC(=O)CCCCCCC)[C@@](C)(OC(C)=O)C[C@H](OC(=O)CCC)[C@@]1(O)[C@H]2OC(=O)[C@@]1(C)O` [TG, thapsigargin], the “autophagic flow (LC3^mCherry/eGFP)” value in assay [4] is “Autophagic arrest”.
